Experimental findings from article PMC12217481, “Structure and mechanism of taniborbactam inhibition of the cefepime-hydrolyzing, partial R2-loop deletion Pseudomonas-derived cephalosporinase variant PDC-88” (Antimicrobial Agents and Chemotherapy, 2025) are described below.

As usually defined, the IC50 is the midpoint of a concentration-inhibition curve. Low readings indicate inhibition by little substance, high ones a need for much substance. One may read the koff as the first-order rate constant of dissociation.

The test system of test [1] is isogenic E. coli strains expressing PDC R2-loop deletion variants (PDC-88 to PDC-92). Nature of the test: MIC changes across the five isogenic E. coli R2-loop deletion strains. It is filed as cell-based, Escherichia coli. Conditions: inhibitor at constant 4 µg/mL; R2-loop deletion variant strains. The protocol: Modal broth microdilution MICs (or median broth microdilution MICs where appropriate) were determined in accordance with Clinical and Laboratory Standards Institute (CLSI) M07 guidelines ([43]). Isogenic E. coli DH10B cells expressing the abovementioned plasmid-encoded PDC constructs were used. […] CLSI quality control strains Escherichia coli NCTC 13353, E. coli ATCC 35218, and Klebsiella pneumoniae ATCC 700603 were used during testing ([24]).

The target of test [2] is T1, PDC-3 (Pseudomonas aeruginosa, UniProt P24735, T105A).
T1 construct: The PDC-3 expression construct was created in a similar manner but starting with a previously described pBC SK(−) vector; made in house; host or cells: E. coli BL21-CodonPlus (DE3)-RP, pET24a(+)
Nature of the test: Competitive inhibition assay with nitrocefin (Ki app, IC50), PDC-3. The format is biochemical. The protocol: (§1) β-Lactamase kinetic and inhibitor constants were determined using an Agilent 8453 UV-Visible Spectrophotometer to record progress curves and determine initial rates and other kinetic parameters as appropriate. Reactions were carried out in 1× phosphate-buffered saline (PBS) (pH 7.4) at room temperature in a 0.2 cm path-length quartz cuvette (Hellma Analytics). Reads were taken every 10 s to minimize UV-mediated background hydrolysis.
(§2) Competitive inhibition assays were used to determine IC50 and Ki app. Nitrocefin (a reporter substrate), enzyme, and inhibitor were mixed, and initial velocities were determined. […] Inverse steady-state velocities (1/V0) were plotted against inhibitor concentration ([I]), forming a straight line. The y-intercept of this line was divided by the slope of the line to yield Ki app obs and IC50 values. Apparent Ki values (Ki app) were determined by correcting for the affinity of nitrocefin in the active site using equation 2:
(§3) (2) KI app= KI app{obs/1+[S]/KM NCF

Test [3] concerns the target T2, PDC-88 (Pseudomonas aeruginosa, UniProt P24735, DEL316-317/G27D/G391A/T105A/V205L/V356I).
T2 construct: NdeI 5′-[…]-3ʹ and BamHI 5ʹ-[…]-3ʹ; His tag removed) (N); made in house; host or cells: E. coli BL21-CodonPlus (DE3)-RP, pET24a(+)
Description: biochemical. The format is biochemical. The method, then:
as §1, §2, §3

Test [4] has as its target T1, PDC-3. Nature of the test: Off-rate (koff) by jump-dilution, PDC-3. The format is biochemical. The protocol: (§4) The off-rates (koff) were determined using a jump-dilution method ([44]). […] The enzyme was serially diluted to 1 nM, and 100 μM nitrocefin was added to initiate the reaction. Recovery progress covers were recorded at 482 nm. The koff value was determined by fitting the progress curves to a single exponential equation. The half-life was determined by dividing ln(2) by koff.

Test [5] has as its target T2, PDC-88. Description: Off-rate (koff) by jump-dilution, PDC-88. The format is biochemical. The protocol:
as §4

The target in test [6] is T1, PDC-3. Description: Thermal denaturation by circular dichroism, PDC-3. It is filed as binding. The method, then:
Competitive enzyme inhibitors can increase enzyme thermal stability as a result of binding to the active site.
Circular dichroism (CD) melting curve experiments were conducted using a J-815 spectropolarimeter (Jasco) and a Peltier effect temperature controller. Suprasil quartz cuvettes with a 0.1 cm path length (Hellma Analytics) were used in all experiments. […] Two-state behavior was observed, as indicated by identical curves at each wavelength. Equilibrium constants were calculated, and the melting temperature, Tm, was calculated from equilibrium denaturation data as previously described ([28]).
On the technique in general: Circular dichroism is widely used to follow secondary structure.

Test [7] has as its target T2, PDC-88. It is filed as binding. The protocol:
Circular dichroism (CD) melting curve experiments were conducted using a J-815 spectropolarimeter (Jasco) and a Peltier effect temperature controller. Suprasil quartz cuvettes with a 0.1 cm path length (Hellma Analytics) were used in all experiments. […] Equilibrium constants were calculated, and the melting temperature, Tm, was calculated from equilibrium denaturation data as previously described ([28]).

On to `NCCN[C@H]1CC[C@H](CC(=O)N[C@H]2Cc3cccc(C(=O)O)c3OB2O)CC1` [TAN, taniborbactam], for which the “restoration of FEP activity / susceptibility by inhibitor” value in test [1] is recorded as “restoring FEP activity in all cases”. For the same molecule, the “Ki app lower compared to avibactam” value at PDC-3 [2] came to 4.1 fold; on PDC-88 [3] (PDC-88), 9 fold. In addition, the “Ki app lower than TZB” value was found to be 40 fold at PDC-3 [2] and 95 fold at PDC-88 [3] (PDC-88). Moreover, the Ki came out at 660 ± 70 nM on PDC-3 [2] (nitrocefin reporter substrate) and 610 ± 60 nM at PDC-88 [3]. Besides, the IC50 at PDC-3 [2] (nitrocefin reporter substrate, 5 min preincubation) was found to be 16 ± 2 nM; at PDC-88 [3], 22 ± 2 nM. The values for the koff on PDC-3 [4] and at PDC-88 [5] were 0.0012 ± 0.0001 s⁻¹ and 0.0007 ± 0.0001 s⁻¹, respectively. In addition, the “increase of Tm upon addition of inhibitor” value was “+9 °C” on PDC-3 [6] (PDC-3) and “+7 °C” on PDC-88 [7] (PDC-88). In addition, the Tm is 61 °C on PDC-3 [6] (PDC-3 with inhibitor, circular dichroism, PDC-3 alone 52°C) and 60 °C on PDC-88 [7] (PDC-88 with inhibitor, circular dichroism, PDC-88 alone 53°C).
